Assay results published in patent publication US10544186B2, “Process for the synthesis of amide bonds with the aid of novel catalysts” (Merck Patent GmbH, priority 2016, dated 2020).
Where a name gives a salt, the structure may show the parent alone.

Columns and labels:
[1] = Solubility of the amide linking reagents in organic solvents; type: physicochemical; details: for solubility in 9CH2Cl2:1CH3CN: solvent 9CH2Cl2:1CH3CN; for solubility in CH2Cl2: solvent CH2Cl2; for solubility in CH3CN: solvent CH3CN; for solubility in DMF: solvent DMF; for solubility in Hexane: solvent Hexane; for solubility in THF: solvent THF
Description: All solubility determinations are carried out in a tared gas-tight 4 ml bottle with magnetic stirrer bar. The amide linking reagent (at least 5 mg) is weighed out and a certain amount of the solvent to be investigated is added. The mixture is stirred for 2-5 minutes. If undissolved solid is still present, solvent (50-100 μl) is additionally added, and the mixture is stirred again. As soon as a clear solution is present, the experiment is terminated.

Molecule: [O-][n+]1nn(C(N2CCCC2)=[N+]2CCCC2)c2ccccc21 (as salt: phosphate) [BPyU-FAP, 1-(Pyrrolidino(pyrrolidinium-1-ylidene)methyl)-1H-benzo[d]-1,2,3-triazole 3-oxide tris(pentafluoroethyl)trifluorophosphate]
- melting point: 173 °C (dec.)

Molecule: CN(C)C(ON1C(=O)CCC1=O)=[N+](C)C.F[B-](F)(F)F [TSTU, O—(N-succinimidyl)-N,N,N′,N′-tetramethyluronium tetrafluoroborate, reference compound]
- solubility in 9CH2Cl2:1CH3CN [1]: 2.9 mg/mL
- solubility in CH2Cl2 [1]: <1.2 mg/mL
- solubility in CH3CN [1]: 265 mg/mL
- solubility in DMF [1]: 220 mg/mL
- solubility in Hexane [1]: <1.2 mg/mL
- solubility in THF [1]: <1.2 mg/mL
- solubility in Toluene ([1]; solvent Toluene): <1.2 mg/mL

Molecule: (7-Azabenzotriazol-1-yloxy)tris(pyrrolidino)phosphonium tris(pentafluoroethyl)trifluorophosphate [PyAOP-FAP]
- solubility in 9CH2Cl2:1CH3CN [1]: >2000 mg/mL
- solubility in CH2Cl2 [1]: >2000 mg/mL
- solubility in CH3CN [1]: >2000 mg/mL
- solubility in DMF [1]: >2000 mg/mL
- solubility in Hexane [1]: <1.2 mg/mL
- solubility in THF [1]: >2000 mg/mL
